From article PMC11530130, “Peripherally restricted PICK1 inhibitor mPD5 ameliorates pain behaviors in murine inflammatory and neuropathic pain models” (JCI Insight, 2024)
“And” between values parts separate entries of the source, which are not always exact repeats. Identical values can stand only once.

Experiments:
naive mice [1] = test: Hot water tail immersion (tail-flick) test; assay type: in vivo, mouse; settings: for tail-flick time, individual mice: water of 49°C, hr 1, male and female
Protocol: To compare pain-relevant vocalizations, only short and constant USVs of 37 kHz were counted […]
Tail-Flick immersion test
Naïve wildtype male and female mice (10 weeks of age) were habituated to handling and experimental set up for one week prior to data collection. On the day of data collection, a baseline measurement was performed prior to injection of compounds. One measurement consisted of immersion of 2/3rds of the tail in water (49 °C) for maximum ten seconds, three times with an interval of ten seconds between each measurement using the mean of the three measurements. After baseline, mice were injected s.c. with mPD5 10 μmol/kg mPD5, 10 mg/kg morphine (RH Pharmacy, Denmark, Vnr. 475249), or sterile PBS one hour before undergoing the tail-flick hot water immersion assay again.
Mice were pretreated with 10 μmol/kg mPD5, 10 mg/kg morphine (RH Pharmacy, Denmark, Vnr. 475249), or PBS 45 min before habituation to observation container (glass cylinder surrounded by mirrors on 2 sides) for 15 min. Mice then received an intraplantar injection of 20 µl capsaicin (1.6 ug/paw) (sigma CAS Number:404-86-4, diluted with 1:1:8 solution of tween-20, 70% ethanol, and MilliQ water) in one hind paw and were reintroduced to the observation container. Mice were recorded for three min after i.pl. injection with capsaicin and euthanized the same day. Mice were scored manually for the amount of time spent paw licking within three min after capsaicin administration.
Mice were 10 weeks old at the beginning of the experiment and acclimatized to the animal facility for two weeks after arrival. Male mice were randomized into two groups (n = 8/group) and weighed and injected s.c. once daily (between 3 pm and 4 pm) for 14 days with sterile PBS or 10 μmol/kg mPD5 (diluted in sterile PBS and pH adjusted to 7.4). After 14 days of dosing, the males were paired with female mice in fresh cages, and the number of pubs counted for 35 days (males were removed from the breeding cages after 14 days). Following the 14 days mating period, males were sacrificed by cervical dislocation caudae epidymidis were removed and weighed. Caudae epidymidis were cut into smaller pieces in 2 mL PBS (37 °C) and incubated (37 °C, 5% CO2) for 15 min. Following incubation, the mix was swirled gently, and 0.5 mL of the liquid was transferred to room tempered PBS to achieve a final volume of 1 mL.
Subsequently, sperm count was determined by transferring 50 µL of the sample to a hemocytometer, and each sample was determined in duplicate by an experimenter blinded to drug treatment. Following criteria were assessed: mobility (forward and circular), local tail mobility and total number. Females were weighed on a regular basis from removal of the males […]
Unless otherwise stated, all data were analysed using GraphPad Prism 9.4.1. and presented as mean +-SEM with the significance level set to p < 0.05. For locomotion and elevated plus maze, Ethovision XT 13 (Noldus) was used to track the distance travelled by each animal. For within group analysis (i.e., von Frey experiments), two-way ANOVA followed by Dunnett’s post hoc test was used. For between group analysis of multiple time points (i.e., locomotion experiments), two-way ANOVA was used without post hoc test due to lack of treatment significance in the ANOVA test. For the limb use experiment, data pre versus post treatment was analysed with a Kruskal Wallis test due to the non-parametric nature of the data. […]

naive mice [2] = test: Conditioned place preference (CPP); assay type: in vivo, mouse; settings: for locomotion during conditioning compared with PBS / time in the drug-paired compartment during the posttest compared with PBS: naive mice
Protocol: compartment and that a single exposure of psychostimulants in the grey compartment sufficiently changes the preference towards that compartment (9-11). For further details of the setup, we refer to (10). Experiments lasted three days with exposure sessions on days one and two and a preference test on day three. On each day, animals were moved from the housing facility to the experimental room and allowed to acclimatize for at least 60 min before initiation of the experiment. mPD5 was paired with the grey compartment, known to be the least preferred compartment (10, 11). All mice from a cage were tested at the same time, but not all were given the same treatment. Mice were weighed and injected s.c. with PBS or 30 μmol/kg mPD5. For the sePP on CFA-injected mice, the injury was induced as described in “Induction of inflammatory pain (CFA model)”-section. sePP was run on day 3-5 after CFA-injection, and von Frey was performed on days 0, 2, and 5 as described in the “Mechanically-evoked pain (von Frey)”-section.
Conditioned place preference.
CPP was performed in Med-Associates square behavioral chambers fitted with beam-break movement detection. Chambers are split in two (27.3 x 13.5 cm each) with a red Plexiglas wall (allowing penetrance of the beams) and a predictable-preference design. Least-preferred compartment: white walls + floor and a transparent lid. Preferred compartment: horizontal grey and black stripes on the wall and lid with a light grey upside-down Lego® floor. Mice can freely move between the two compartments through a 4x4 cm opening in the separating wall during pretest and posttest but are confined to one compartment during conditionings.
Pretest (DAY 1): To test the basal preference of the mice, they were placed in the chamber to freely move between the two compartments for 30 min. Time spent in each compartment was […]
compartment was used to define three even groups.
Conditioning (DAY 2-9): Mice were injected s.c. with PBS, morphine (10 mg/kg) (RH Pharmacy, Denmark, Vnr. 475249), or 10 μmol/kg mPD5 immediately before being placed in and confined to the appropriate compartment for 40 min. Drug was paired to the least-preferred compartment, conditioning was alternated so that mice were never placed in the same compartment two days in a row, and the day on which they were exposed to drug was […]
Preference test (DAY 10): Mice were allowed to freely move between the two compartments […]
Ultrasonic vocalisation (USV) recordings.
Mice were left in Med-Associates square behavioral chambers (27 cm x 27 cm) to freely roam around for 60 min, four days in a row. The first two days were for habituation, but on the third and fourth days, USV recordings were performed using an Avisoft UltraSoundGate 416Hb recording interface (Model CM16-CMPA, Avisoft Bioacoustics, Germany) at a sampling rate of 250,000 Hz in 16-bit format kindly loaned by Morgan Thomsen and Simone Tonetto (Department of Neuroscience, University of Copenhagen, Copenhagen). On day three, both control and SNI mice were placed directly in the chambers and recorded for 60 min. On day four, control mice were injected s.c. with PBS, and SNI mice were injected with either 10 μmol/kg mPD5 or PBS immediately before being placed in the chambers and recorded for 60 min. The recordings were analyzed using the Avisoft SASLab Pro software (Version 5.02.07, Avisoft Bioacoustics) as described in (12), applying a fast fourier transformation (FFT) (1024 FTT length, 100% frame size, Blackman window, and 87.5% time window overlap).
Spectrograms were produced at a frequency resolution of 244 Hz and a time resolution of 0.512 ms. Spectrogram analysis was performed using an automatic whistle-tracking algorithm with an element separation threshold of -45 dB, 1 ms minimal duration, and a hold time of 10 ms.

SMILES | tail-flick time, individual mice (naive mice [1]; 10 mg/kg, female mice) | tail-flick time, individual mice (naive mice [1]; 10 mg/kg, male mice) | Conditioned place preference, Fig 6O, individual mice (naive mice [2]; 10 mg/kg) | CPP conditioning session value, Fig 6N, individual mice (naive mice [2]; Cond1, 10 mg/kg) | CPP conditioning session value, Fig 6N, individual mice (naive mice [2]; Cond2, 10 mg/kg) | CPP conditioning session value, Fig 6N, individual mice (naive mice [2]; Cond3, 10 mg/kg) | CPP conditioning session value, Fig 6N, individual mice (naive mice [2]; Cond4, 10 mg/kg) | locomotion during conditioning compared with PBS (naive mice [2]; s.c. 10 mg/kg) | time in the drug-paired compartment during the posttest compared with PBS (naive mice [2]; s.c. 10 mg/kg) | effect on tail-flick latency compared with baseline (naive mice [1]; naive mice, both sexes, s.c. 10 μmol/kg) | tail-flick time, individual mice (naive mice [1]; 10 umol/kg, female mice) | tail-flick time, individual mice (naive mice [1]; 10 umol/kg, male mice) | Conditioned place preference, Fig 6O, individual mice (naive mice [2]; 10 umol/kg) | CPP conditioning session value, Fig 6N, individual mice (naive mice [2]; Cond1, 10 umol/kg) | CPP conditioning session value, Fig 6N, individual mice (naive mice [2]; Cond2, 10 umol/kg) | CPP conditioning session value, Fig 6N, individual mice (naive mice [2]; Cond3, 10 umol/kg) | CPP conditioning session value, Fig 6N, individual mice (naive mice [2]; Cond4, 10 umol/kg) | locomotion during conditioning compared with PBS (naive mice [2]; s.c. 10 μmol/kg) | time in the drug-paired compartment during the posttest compared with PBS (naive mice [2]; s.c. 10 μmol/kg)
CN1CC[C@]23c4c5ccc(O)c4O[C@H]2[C@@H](O)C=C[C@H]3[C@H]1C5 [morphine] | 10 | 10 (2×) and 6 and 7 | 641.2 and 758.05 and 523.1 and 617.25 and 422.75 and 543.85 and 370.9 and 516.75 | 9137.98 and 12057.9 and 7914.76 and 12165.9 and 13969.3 and 7487.52 and 2666.42 and 10528.9 | 15370.1 and 15969.7 and 11493.6 and 16698.2 and 17811.8 and 8242.22 and 9139.38 and 16599.9 | 15699.6 and 17306.6 and 14219.9 and 18863.2 and 19954.9 and 11799.1 and 7739.36 and 18695.7 | 14707.1 and 15254.9 and 15074.4 and 17950.9 and 21599.6 and 11535.1 and 8924.2 and 17697.5 | significantly increased locomotion | significantly more time in the drug-paired compartment |  |  |  |  |  |  |  |  |  | 
CCCCCCCCCCCCCC(=O)N(CCOCCOCCC(=O)N[C@@H](Cc1c[nH]cn1)C(=O)N[C@@H](Cc1c[nH]c2ccccc12)C(=O)N[C@@H](CC(C)C)C(=O)N[C@@H](CCCCN)C(=O)N[C@H](C(=O)O)C(C)C)CCOCCOCCC(=O)N[C@@H](Cc1c[nH]cn1)C(=O)N[C@@H](Cc1c[nH]c2ccccc12)C(=O)N[C@@H](CC(C)C)C(=O)N[C@@H](CCCCN)C(=O)N[C@H](C(=O)O)C(C)C [mPD5, myristoyl-NPEG4-(HWLKV)2] |  |  |  |  |  |  |  |  |  | no effect on tail-flick latency | 3 and 4 (2×) and 5 | 3 (2×) and 2 and 4 | 422.4 and 657.8 and 145.75 and 377.8 and 709.7 and 623.7 and 240.55 and 244.05 | 2308.61 and 1809.85 and 2224.56 and 2674.86 and 871.493 and 1226.84 and 1378.23 and 2217.21 | 1180.49 and 1059.56 and 1212.87 and 2147.54 and 783.988 and 1076.18 and 1174.28 and 2455.85 | 1906.76 and 766.515 and 1139.87 and 2374.29 and 1205.41 and 1378.46 and 1356.35 and 1697.51 | 2079.11 and 1457.65 and 2495.22 and 2149.64 and 1597.67 and 2463.25 and 958.529 and 1951.51 | did not affect locomotion | did not
